Reference: patent publication US20260083751A1, “ALLOSTERIC MODULATORS OF ANDROGEN RECEPTOR COACTIVATOR RECRUITMENT FOR CRPC THERAPY” (University of Pittsburgh – Of the Commonwealth System of …, priority 2022, published 2026)
Values joined by “and” are separate entries in the source; they are usually repeats but may differ in a detail not shown here. Equal values may be shown once. Read-outs that look alike come from different tables or passages of the source.

How the values were obtained:
[1] = biological target: T1, AR-LBD / TIF2 box III LXXLL peptide (Homo sapiens, UniProt P10275); experiment: AR-LBD::TIF2 Box III LXXLL peptide binding AlphaScreen assay
T1 construct: The pET28a-AR-LBD (622-919) construct; made in house
T1 sequence (P10275 622-919): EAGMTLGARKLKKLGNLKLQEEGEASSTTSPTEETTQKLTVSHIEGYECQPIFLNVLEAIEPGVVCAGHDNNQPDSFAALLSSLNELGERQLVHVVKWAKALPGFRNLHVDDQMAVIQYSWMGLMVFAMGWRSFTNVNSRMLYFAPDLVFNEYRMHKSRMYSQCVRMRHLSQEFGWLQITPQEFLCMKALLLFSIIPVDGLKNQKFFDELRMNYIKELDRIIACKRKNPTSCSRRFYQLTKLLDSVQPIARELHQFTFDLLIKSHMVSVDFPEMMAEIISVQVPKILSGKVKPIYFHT
Procedure: […] Biotinylated (Biotin-HN-[…]-CONH2; SEQ ID NO: 1) and non-biotinylated TIF2-box-III (738-756) peptide (H2N-[…]-CONH2; SEQ ID NO: 2) were synthesized by the Peptide & Peptoid Synthesis Facility, at the University of Pittsburgh Health Sciences Core Research Facilities. ALPHAScreen® streptavidin donor beads (SA-DB) and nickel chelate acceptor beads (Ni-AB) were purchased from Perkin Elmer (Waltham, MA). The assay was performed in 384-well white opaque plates (Greiner BioOne, #781080). […] 18 μL of the SA-DB bound biotinylated TIF2 peptide mixture was added to the assay plate before 5 μL of compounds were transferred into assay wells and 27 μL of the AlphaScreen® donor and acceptor B bead mixture was added to the plate. 32 wells containing 0.5% DMSO provided maximum controls and 32 wells containing a 500-fold excess of unlabeled TIF2-box-III (75 μM) were used as minimum controls. The combined head-protein-peptide-compound mixture was incubated for 1 h at room temperature in the dark, and then the RLU's were acquired at 520 nm after excitation at 680 nm on an EnVision® plate reader (Perkin Elmer, Waltham, MA) as described previously (Fancher et al., Assay Drug Dev Technol. 2019, 17:364-386).

[2] = biological target: T2, AR-LBD PPI interactions with TIF2 and SRC1 coactivators (Homo sapiens, UniProt P10275); experiment: TIF2 and SRC1 mammalian 2-hybrid assays, results stated jointly; assay type: cell-based; details: for IC50: both M2H assays
T2 construct: AR-LBD amino acids 658-919 expressed as a fusion protein with Gal4-DBD; expressed in transfected cells; host or cells: HEK 293, transient co-transfection
T2 sequence (P10275 659-920): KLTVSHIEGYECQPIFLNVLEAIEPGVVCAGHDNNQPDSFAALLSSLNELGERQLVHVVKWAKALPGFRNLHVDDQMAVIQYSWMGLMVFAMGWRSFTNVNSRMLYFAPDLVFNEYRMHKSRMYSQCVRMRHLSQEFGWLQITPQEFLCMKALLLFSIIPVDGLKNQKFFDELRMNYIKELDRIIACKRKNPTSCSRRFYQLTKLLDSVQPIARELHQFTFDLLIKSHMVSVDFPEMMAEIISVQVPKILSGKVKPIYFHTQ
From the text: TIF2 and SRC1 Mammalian 2-Hybrid Assays: The 5×GAL4-TATA-luciferase reporter plasmid was a gift from Dr. Richard Maurer from the Oregon Health and Science University (Gonzalez et al., Cell 1989, 59:675-80), and constructs pGAL4-hAR-658-919 (AR-LBD amino acids 658-919 expressed as a fusion protein with Gal4-DBD) (Askew et al., J Biol Chem 2007, 282:25801-16), pVP16-SRC1 (full-length SRC1 expressed as a fusion with VP16 activation domain) (He et al., J Biol Chem 1999, 274:37219-25) and pVP16-Empty vectors were kindly provided to us by Dr. Elizabeth Wilson, from UNC Chapel Hill. pVP16-TIF2 was generated as described previously (Fancher et al., Assay Drug Dev Technol. 2019, 17:364-386). HEK 293 cells were transiently co-transfected with 5 ng of pGal4-AR-LBD, 10 ng of either pVP16-TIF2 or pVP16-SRC1, and 20 ng of the 5×Gal4-TATA-Luc reporter as described previously (Ibid.). HEK 293 cells were bulk co-transfected with the three plasmids that had been individually incubated with FuGENE® 6 transfection agent (Fugent LLC, Middleton, WI) at a 3:1 ratio for 25 min at room temperature (RT) in serum free media (SFM) and then combined with HEK 293 cells that were suspended in DMEM (Cellgro10013CV) with 2 mM L-glutamine (Invitrogen) that was supplemented with 10% fetal bovine serum, and 5,000 cells in a volume of 40 μL were seeded into the wells of white opaque 384-well assay plates (Greiner Bio-one, #781080) and cultured overnight at 37° C., 5% CO2, and 95% humidity. […] 25 μL of BrightGlo® reagent (Promega, Madison, WI) was added to the plate and the relative luminescence units (RLUs) were captured on a SpectraMax® M5e microtiter plate reader (Molecular Devices, LLC, San Jose, CA).

[3] = GI50 given in Tables 4-6 (test not described); assay type: cell-based; details: cell line not stated
[4] = AlphaScreen, read-out: Inhibition DHT-induced TIF2 NR Box 3 LXXLL peptide binding to AR-LBD IC50
[5] = read-out: IC50 in TIF2 LXXLL-peptide AR-LBD binding assay (potency range in words)
[6] = IC50s in TIF2 and SRC-1 M2H assays (potency range in words)
[7] = read-out: IC50s, DHT-induced AR-LBD PPI interactions with TIF2 and SRC1 coactivators

SMILES	IC50 [1, 4]	IC50 [1, 5] [µM]	Fold difference of M2H IC50s to IC50 for AR-TIF2 PPI disruption [2] [fold]	IC50 [2, 6] [µM]	IC50 in TIF2 LXXLL-peptide AR-LBD binding assay (potency range in words) [1]	IC50 [2, 7] [µM]	Fold M2H IC50s less than corresponding AR-TIF2 biosensor IC50s [2] [fold]	Fold lower IC50 for TIF2 than SRC1 ([2]; CoA selectivity) [fold]	GI50 [3] [µM]
Cc1nc(N)cc(N2CCOc3c(O)cc(-c4ccccc4C)cc3C2)n1 [Compound S1-2]	21 to 83 µM			1 to 10	mid 44 μM				51.9
Cc1ccccc1-c1cc(O)c2c(c1)CN(c1cc(N)ncn1)CCO2 [Compound S1-4]									> 100
COc1cc(-c2ccc(C)s2)cc2c1OCCN(c1nc(C(N)=O)cs1)C2 [Compound S1-5]	> 100 µM			10 to 100		20 to 42			> 100
Cc1nsc(NC(=O)N2CCC(Cn3ccnc3)CC2)n1 [Compound S2-7]									> 100
CC(=O)NCCC(=O)NCc1ccc2[nH]c(-c3ccccc3F)c(C)c2c1 [Compound S3-13]	92 µM	10 to 100		10 to 100		10 to 20			> 100
Cc1c(-c2ccc(F)cc2)[nH]c2ccc(CNC(=O)c3ccc(CO)o3)cc12 [Compound S3-15]		10 to 100		1 to 10		< 10			> 100

More lines, main results first:

IC50 [1, 4]	IC50 [1, 5] [µM]	Fold difference of M2H IC50s to IC50 for AR-TIF2 PPI disruption [2] [fold]	IC50 [2, 6] [µM]	IC50 in TIF2 LXXLL-peptide AR-LBD binding assay (potency range in words) [1]	IC50 [2, 7] [µM]	Fold M2H IC50s less than corresponding AR-TIF2 biosensor IC50s [2] [fold]	Fold lower IC50 for TIF2 than SRC1 ([2]; CoA selectivity) [fold]	SMILES	GI50 [3] [µM]
21 to 83 µM and 12 µM	10 to 100	~5	1 to 10					Cc1ccccc1-c1cc(O)c2c(c1)CN(c1nc(C(N)=O)cs1)CCO2 [Compound S1-1]	> 100
21 to 83 µM			1 to 10	mid 44 μM				Cc1ccccc1-c1cc(O)c2c(c1)CN(c1nccs1)CCO2 [Compound S1-3]	> 100
49.5 µM	10 to 100		< 1			~10	~5	Cc1nsc(NC(=O)N2CCC(Sc3ccccc3C)CC2)n1 [Compound S2-6]	> 100
50 µM and 45.2 µM	10 to 100		1 to 10		< 10			Cc1c(-c2ccccc2F)[nH]c2ccc(CNC(=O)CCc3cn[nH]c3)cc12 [Compound S3-11]	> 100
> 100 µM			1 to 10		< 10			Cc1c(-c2ccccc2F)[nH]c2ccc(CNC(=O)CCc3cnccn3)cc12 [Compound S3-12]	> 100
	10 to 100		1 to 10		< 10			Cc1c(-c2ccccc2F)[nH]c2ccc(CNC(=O)c3ccc(CO)o3)cc12 [Compound S3-14]	> 100
	1 to 10		10 to 100		10 to 20			Cc1cccc2c(-c3ccc(O)c(F)c3)c[nH]c12 [Compound S3-17]	99
> 100 µM			10 to 100		10 to 20			CNC(=O)c1ccc(-c2c[nH]c3c(C)cccc23)cc1 [Compound S3-21]	> 100
